Results as given in PubChem BioAssay (NCI).
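The compound was tested at five concentrations on cells cultured in 96-well plates, with a 48-hour exposure period. Definition used: TGI = concentration required for complete inhibition of growth.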

Legend:
Assay in all cases: NCI-60 cell line screen, 48 h
[1] = system: EKVX NSCLC
[2] = system: CCRF-CEM leukemia
[3] = system: NCI-H23 lung
[4] = system: SK-OV-3 ovarian
[5] = system: SNB-19 CNS
[6] = system: IGROV1 ovarian
[7] = system: RXF 393 renal
[8] = system: SR leukemia
[9] = system: DU-145 prostate
[10] = system: COLO 205 colon
[11] = system: HOP-92 NSCLC
[12] = system: RPMI-8226 leukemia
[13] = system: LOX IMVI melanoma
[14] = system: MOLT-4 leukemia
[15] = system: UACC-257 melanoma
[16] = system: T-47D breast
[17] = system: HL-60(TB) leukemia

## Cc1c2c(cc3c1C(=O)C(=O)C([C@@H](C)CO)=C3O)C(C)(C)CCC2
[1]
  TGI: > 100 µM
[2]
  TGI: 40.7 µM
[3]
  TGI: 45.2 µM
[4]
  TGI: > 100 µM
[5]
  TGI: 23.3 µM
[6]
  TGI: > 100 µM
[7]
  TGI: 92.3 µM
[8]
  TGI: 56.7 µM
[9]
  TGI: > 100 µM
[10]
  TGI: > 100 µM
[11]
  TGI: > 100 µM
[12]
  TGI: > 100 µM
[13]
  TGI: > 100 µM
[14]
  TGI: 93.2 µM
[15]
  TGI: > 100 µM
[16]
  TGI: > 100 µM

## CC1(C)C2CC(O)C1(C)CC2=O (configuration not stated)
[2]
  TGI: > 100 µM
[3]
  TGI: > 100 µM
[4]
  TGI: > 100 µM
[5]
  TGI: > 100 µM
[6]
  TGI: > 100 µM
[7]
  TGI: > 100 µM
[8]
  TGI: > 100 µM
[9]
  TGI: > 100 µM
[10]
  TGI: > 100 µM
[17]
  TGI: > 100 µM
[11]
  TGI: > 100 µM
[12]
  TGI: > 100 µM
[13]
  TGI: > 100 µM
[14]
  TGI: > 100 µM
[15]
  TGI: > 100 µM
[16]
  TGI: > 100 µM

## O=C(CP(=O)(c1ccccc1)c1ccccc1)c1cccc(C(=O)CP(=O)(c2ccccc2)c2ccccc2)c1
[1]
  TGI: > 100 µM
[2]
  TGI: > 100 µM
[4]
  TGI: 56.1 µM
[5]
  TGI: > 100 µM
[6]
  TGI: > 100 µM
[7]
  TGI: 52.7 µM
[8]
  TGI: > 100 µM
[9]
  TGI: > 100 µM
[10]
  TGI: > 100 µM
[17]
  TGI: > 100 µM
[12]
  TGI: > 100 µM
[14]
  TGI: > 100 µM
[15]
  TGI: > 100 µM
[16]
  TGI: > 100 µM

## COc1cccc(Nc2nc(C)c([N+](=O)[O-])c(Nc3cccc(OC)c3)n2)c1
[1]
  TGI: 78.4 µM
[3]
  TGI: > 100 µM
[4]
  TGI: > 100 µM
[5]
  TGI: > 100 µM
[6]
  TGI: > 100 µM
[7]
  TGI: 35.2 µM
[8]
  TGI: > 100 µM
[9]
  TGI: 56.1 µM
[10]
  TGI: 44.9 µM
[17]
  TGI: > 100 µM
[11]
  TGI: > 100 µM
[12]
  TGI: 45.9 µM
[13]
  TGI: > 100 µM
[14]
  TGI: 30.2 µM
[15]
  TGI: 46.7 µM
[16]
  TGI: 6.9 µM

## CC(=O)OC1=NN=C2COC(c3ccccc3OC(C)=O)=NN2C1
[1]
  TGI: > 50 µM
[2]
  TGI: > 50 µM
[3]
  TGI: > 50 µM
[4]
  TGI: > 50 µM
[5]
  TGI: > 50 µM
[6]
  TGI: > 50 µM
[7]
  TGI: > 50 µM
[8]
  TGI: > 50 µM
[9]
  TGI: > 50 µM
[10]
  TGI: > 50 µM
[17]
  TGI: > 50 µM
[11]
  TGI: > 50 µM
[12]
  TGI: > 50 µM
[13]
  TGI: > 50 µM
[15]
  TGI: > 50 µM
[16]
  TGI: > 50 µM

## NC(CSS(=O)(=O)O)=NC1CC2CCC1C2 (configuration not stated)
[2]
  TGI: > 100 µM
[3]
  TGI: > 100 µM
[4]
  TGI: > 100 µM
[5]
  TGI: > 100 µM
[6]
  TGI: > 100 µM
[7]
  TGI: > 100 µM
[8]
  TGI: > 100 µM
[9]
  TGI: > 100 µM
[10]
  TGI: > 100 µM
[17]
  TGI: > 100 µM
[11]
  TGI: > 100 µM
[12]
  TGI: > 100 µM
[13]
  TGI: > 100 µM
[14]
  TGI: > 100 µM
[15]
  TGI: > 100 µM
[16]
  TGI: > 100 µM

## CCSc1nnc(Sc2c3ccccc3nc3ccccc23)s1
[1]
  TGI: 16.7 µM
[2]
  TGI: > 100 µM
[3]
  TGI: 53.1 µM
[4]
  TGI: > 100 µM
[5]
  TGI: > 84.5 µM
[6]
  TGI: > 55 µM
[7]
  TGI: 35.3 µM
[8]
  TGI: > 100 µM
[9]
  TGI: 30.2 µM
[10]
  TGI: 7.01 µM
[11]
  TGI: > 44.8 µM
[12]
  TGI: > 28 µM
[13]
  TGI: 23.7 µM
[14]
  TGI: 6.25 µM
[15]
  TGI: 23.6 µM
[16]
  TGI: > 44.2 µM

## CCCN(CCc1ccc(-c2ccccc2)cc1)CCc1ccc2n[nH]nc2c1
[1]
  TGI: 27.5 µM
[2]
  TGI: 19.4 µM
[3]
  TGI: 25.8 µM
[4]
  TGI: 28.5 µM
[5]
  TGI: 26.8 µM
[6]
  TGI: 22.1 µM
[7]
  TGI: 33.1 µM
[8]
  TGI: 17.9 µM
[9]
  TGI: 23.9 µM
[10]
  TGI: 9.07 µM
[11]
  TGI: 15.2 µM
[12]
  TGI: 28.1 µM
[13]
  TGI: 28.6 µM
[14]
  TGI: 19.1 µM
[15]
  TGI: 17.1 µM
[16]
  TGI: 19.2 µM

## CC(C)(C)c1cc(S(=O)(=O)O)c2oc(-c3ccccc3)cc(=O)c2c1
[1]
  TGI: > 100 µM
[2]
  TGI: > 100 µM
[3]
  TGI: > 100 µM
[5]
  TGI: > 100 µM
[6]
  TGI: > 100 µM
[7]
  TGI: > 100 µM
[8]
  TGI: > 100 µM
[9]
  TGI: > 100 µM
[10]
  TGI: > 100 µM
[17]
  TGI: > 100 µM
[12]
  TGI: > 100 µM
[13]
  TGI: > 100 µM
[14]
  TGI: > 100 µM
[15]
  TGI: > 100 µM
[16]
  TGI: > 100 µM

## Cc1ccc(S(=O)(=O)NC(=O)NCc2ccc(S(N)(=O)=O)cc2)cc1
[1]
  TGI: > 100 µM
[3]
  TGI: > 100 µM
[4]
  TGI: > 100 µM
[5]
  TGI: > 100 µM
[6]
  TGI: > 100 µM
[7]
  TGI: > 100 µM
[8]
  TGI: > 100 µM
[9]
  TGI: > 100 µM
[10]
  TGI: > 100 µM
[17]
  TGI: > 100 µM
[11]
  TGI: > 100 µM
[12]
  TGI: > 100 µM
[13]
  TGI: > 100 µM
[14]
  TGI: > 100 µM
[16]
  TGI: > 100 µM

## CC12CCCC(C(=O)O)(C1)[C@H](C(C)(C)C(=O)O)CC2 (some centres not stated)
[1]
  TGI: > 100 µM
[2]
  TGI: > 100 µM
[3]
  TGI: > 100 µM
[4]
  TGI: > 100 µM
[5]
  TGI: > 100 µM
[6]
  TGI: > 100 µM
[8]
  TGI: > 100 µM
[9]
  TGI: > 100 µM
[10]
  TGI: > 100 µM
[17]
  TGI: > 100 µM
[11]
  TGI: > 100 µM
[12]
  TGI: > 100 µM
[13]
  TGI: > 100 µM
[14]
  TGI: > 100 µM
[15]
  TGI: > 100 µM
[16]
  TGI: > 100 µM
